Reference: patent publication EP0360937B1, “Improved process for recovering microbially produced interferonbeta” (CETUS ONCOLOGY CORPORATION, priority 1988, dated 1990)

Legend:
[1] = molecular target: T1, IFN-beta (Homo sapiens, UniProt P01574, C38S); test: Keeping IFN-beta soluble as guanidine HCl is removed by dialysis; supernatant and pellet analysed by SDS-PAGE and silver stain; assay type: physicochemical; set-up: key to Successful (+)/ Unsuccessful (-): Successful (+); Unsuccessful (-); conditions: for Successful (+)/ Unsuccessful (-): dialysis against sodium phosphate buffer pH 5.0; for keeping IFN-beta in solution: 15% PEG300, 25% glycerol, 50% sucrose, 20% isopropanol
T1 construct: made in house; host or cells: E. coli K12/MM294-1 carrying plasmid pSY2501 (ATCC 39,517)
T1 sequence (P01574 23-187 C38S limits assumed): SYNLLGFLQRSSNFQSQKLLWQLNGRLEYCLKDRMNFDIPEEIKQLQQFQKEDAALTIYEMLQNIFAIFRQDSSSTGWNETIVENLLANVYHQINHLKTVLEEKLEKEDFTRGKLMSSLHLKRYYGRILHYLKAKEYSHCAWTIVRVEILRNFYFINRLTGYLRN
Experimental: At this point, a stabilizing additive was added to the oxidized IFN-beta material while guanidine HCl is still present, and the solution was dialyzed to remove the guanidine. The solubilized, oxidized material was divided into aliquots and a different stabilizing agent or a non-ionic detergent was added to each aliquot. A summary of the stabilizing agents and non-ionic detergents used in this example, as well as the concentration used, is provided in Table 1.
Each aliquot was dialyzed against 20-50 mM sodium phosphate buffer, pH 5.0 containing the appropriate stabilizer or detergent. […] Dialysis was run at pH 5.0 because rIFN-beta is more soluble at low pH than at neutral or higher pH. As the guanidine HCl was dialyzed from the sample, a precipitate formed. The aliquots were centrifuged at 5,000 x g for 15 min and both the supernatant and the pellet, resuspended in 1% SDS, were saved. The supernatant and resuspended pellet were analyzed by SDS-PAGE (PHAST system by Pharmacia) and silver stain to locate the rIFN-beta.

[2] = molecular target: T1, IFN-beta; test: Absorbance at 280 nm in supernatant after dialysis against glycerol, with varied concentration and pH; assay type: physicochemical; conditions: for % A₂₈₀ in Supernatant: 25 mM NaPi

## CCC(O)CO (centres unmarked) [1,2-butanediol]
[1]; reagent at 20%
  Successful (+)/ Unsuccessful (-): -

## OCC(O)COc1ccccc1 (centres unmarked) [3-phenoxy-1,2-propanediol]
[1]; reagent at 5%
  Successful (+)/ Unsuccessful (-): -

## OCCO [Ethylene Glycol]
[1]; reagent at 20%
  Successful (+)/ Unsuccessful (-): -

## OCC(O)CO [Glycerol]
[1]
  keeping IFN-beta in solution: keep IFN-beta in solution
[2]; 25%, pH 4
  % A₂₈₀ in Supernatant: 31%
[2]; 25%, pH 5
  % A₂₈₀ in Supernatant: 13%
[2]; 50%, pH 4
  % A₂₈₀ in Supernatant: 86%
[2]; 50%, pH 5
  % A₂₈₀ in Supernatant: 50%
[2]; concentration increased to 50% and pH lowered to 4
  IFN-beta solubility on adjusting concentration and pH: greater IFN-beta solubility

## CC(C)O [Isopropanol]
[1]
  keeping IFN-beta in solution: keep IFN-beta in solution
[1]; reagent at 50%
  Successful (+)/ Unsuccessful (-): +

## CC(O)CO (centres unmarked) [Propylene Glycol]
[1]; reagent at 20%
  Successful (+)/ Unsuccessful (-): -

## OC[C@H]1O[C@@](CO)(O[C@H]2O[C@H](CO)[C@@H](O)[C@H](O)[C@H]2O)[C@@H](O)[C@@H]1O [Sucrose]
[1]
  keeping IFN-beta in solution: keep IFN-beta in solution

## Tween® 80
[1]; 0.01% detergent with 25% glycerol at pH 4, A280 and SDS-PAGE
  keeping IFN-beta in solution, detergent combined with glycerol: keep most of the IFN-beta in solution
